Test [1] relates to HgmTad2. It is filed as binding, Bacteroides phages (human gut metagenomic libraries).
Test [2] relates to ColiTad1. It is filed as binding, Colidexitribacter sp. OB.20. The conditions noted are these: native gel combined with ITC.
The target in test [3] is T1, SBS Tad1 (Bacillus phage SBSphiJ7, UniProt P0DW57). It is filed as binding, Bacillus cereus phage SBSphiJ7. The conditions noted are these: native gel combined with ITC.
In test [4] the target is SPO1 Tad2 (Bacillus phage SP01, UniProt B6V311). It is filed as binding, Bacillus cereus phage SPO1. The conditions noted are these: HPLC; 40 μM protein, 4 μM ligand.
SPO1 Tad2, sequence (B6V311 whole entry, looked up): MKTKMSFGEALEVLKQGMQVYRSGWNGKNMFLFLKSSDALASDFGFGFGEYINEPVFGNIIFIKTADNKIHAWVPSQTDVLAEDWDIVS
For test [5], the system named is HgmTad2. It is filed as binding, Bacteroides phages (human gut metagenomic libraries). Particulars: HPLC; HgmTad2 of State 1; 40 μM protein, 4 μM ligand.
Test [6] has as its target CmTad1 (Clostridioides mangenotii, UniProt P0DW61). It is filed as binding, Clostridioides mangenotii prophage. The conditions noted are these: for binding to CmTad1 in words: among the CDNs tested.
For test [7], the target named is T1, SBS Tad1. Description: biochemical. It is filed as binding, Bacillus cereus phage SBSphiJ7.
[8] abbreviates: native PAGE, HgmTad2 of State 1.

Structures are written as SMILES. pKd: −log10 of the molar value. Like-named read-outs stand apart in the source and are kept apart here.

CmTad1, sequence (P0DW61 whole entry): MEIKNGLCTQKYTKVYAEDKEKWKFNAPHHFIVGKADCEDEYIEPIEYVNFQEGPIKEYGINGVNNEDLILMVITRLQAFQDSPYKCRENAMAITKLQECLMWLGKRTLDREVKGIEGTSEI
T1 sequence (P0DW57 whole entry, looked up): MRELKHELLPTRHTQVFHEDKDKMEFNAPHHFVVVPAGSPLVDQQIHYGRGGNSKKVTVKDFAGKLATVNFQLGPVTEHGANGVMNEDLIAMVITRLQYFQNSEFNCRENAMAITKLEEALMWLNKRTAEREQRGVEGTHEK

As for `Nc1ncnc2c1ncn2[C@@H]1O[C@@H]2COP(=O)(O)OP(=O)(O)OC[C@H]3OC(O[C@@H]1[C@@H]2O)[C@H](O)[C@@H]3O` [1''-2' gcADPR], in test [1] (native gel, purified HgmTad2 in all the three states), the “native gel shift of HgmTad2 upon adding ligand” value was “shift”. In the case of `Nc1nc2c(ncn2[C@@H]2O[C@@H]3COP(=O)(O)O[C@H]4[C@@H](O)[C@H](n5cnc6c(N)ncnc65)O[C@@H]4COP(=O)(O)O[C@@H]2[C@@H]3O)c(=O)[nH]1` [2',3'-cGAMP], the “binding affinity to ColiTad1 in words” value in test [2] is “high affinity”.

Take `Nc1nc2c(ncn2[C@@H]2O[C@@H]3COP(=O)(O)O[C@@H]4[C@H](O)[C@@H](COP(=O)(O)O[C@H]3[C@H]2O)O[C@H]4n2cnc3c(N)ncnc32)c(=O)[nH]1` [3',2'-cGAMP]: the “binding affinity to ColiTad1 in words” value in test [2] is recorded as “low affinity”. Further, in test [3], the “binding affinity to SBS Tad1 in words” value is “low affinity”. In general, pKd refers to the Kd on a negative log10 scale, so that one unit is a factor of ten. Read a high pKd as a low Kd. With `Nc1nc2c(ncn2[C@@H]2O[C@@H]3COP(=O)(O)O[C@H]4[C@@H](O)[C@H](n5cnc6c(N)ncnc65)O[C@@H]4COP(=O)(O)O[C@H]3[C@H]2O)c(=O)[nH]1` [3',3'-cGAMP], the “native gel shift of HgmTad2 upon adding ligand” value in test [1] (setting [8]) is “significant shift”. The “depletion of ligand after incubation with SPO1 Tad2” value in test [4] was “does not deplete”. The “depletion of ligand after incubation with HgmTad2” value in test [5] is “depletes”. Moreover, the “binding to CmTad1 in words” value in test [6] is listed as “weak binding”. For the same compound, the “binding affinity to ColiTad1 in words” value in test [2] is “low affinity”. Further, the pKd in test [7] was 7.31.

Regarding `Nc1nc2c(ncn2[C@@H]2O[C@@H]3COP(=O)(O)O[C@H]4[C@@H](O)[C@H](n5cnc6c(N)ncnc65)O[C@@H]4COP(=O)(O)O[C@H]4[C@@H](O)[C@H](n5cnc6c(N)ncnc65)O[C@@H]4COP(=O)(O)O[C@H]3[C@H]2O)c(=O)[nH]1` [cAAG], the “native gel shift of CmTad1 upon adding ligand” value in test [6] (native PAGE, protein 20 μM) is “shift”. Regarding `Nc1nc2c(ncn2[C@@H]2O[C@@H]3COP(=O)(O)O[C@H]4[C@@H](O)[C@H](n5cnc6c(=O)[nH]c(N)nc65)O[C@@H]4COP(=O)(O)O[C@H]3[C@H]2O)c(=O)[nH]1` [cGG, 3’,3’-cyclic di-GMP], in test [1] (setting [8]), the “native gel shift of HgmTad2 upon adding ligand” value is “significant shift”.

Take `Nc1ncnc2c1ncn2[C@@H]1O[C@@H]2COP(=O)(O)O[C@H]3[C@@H](O)[C@H](n4ccc(=O)[nH]c4=O)O[C@@H]3COP(=O)(O)O[C@H]2[C@H]1O` [cUA]: the “binding to CmTad1 in words” value in test [6] is listed as “weak binding”. In test [7], this compound had a pKd of 7.27. For the compound `Nc1nc2c(ncn2[C@@H]2O[C@@H]3COP(=O)(O)O[C@H]4[C@@H](O)[C@H](n5ccc(=O)[nH]c5=O)O[C@@H]4COP(=O)(O)O[C@H]3[C@H]2O)c(=O)[nH]1` [cUG], the “native gel shift of HgmTad2 upon adding ligand” value in test [1] (setting [8]) is listed as “significant shift”.
